Each molecule was assayed on HEK293 cells expressing ΔCR PrP (assay: cells). Conditions: HEK293, 48 h, read-out: % RMAX: maximum rescuing effect, expressed as percentage of the effect of SM3(LD24) at the same concentration.
Type: cell-based
Parameters: Emax: dose or concentration left out as unconfirmed
`C=CCNC(=O)CN1c2ccc(Br)cc2-c2ccccc2S1(=O)=O` [SM164] gave an Emax of 53.7%.

Same assay, conditions: HEK293, 48 h; 1 μM; read-out: % RMAX: maximum rescuing effect, expressed as percentage of the effect of SM3(LD24) at the same concentration
`O=C(CN1c2ccc(Br)cc2-c2ccccc2S1(=O)=O)NCCC1=CCCCC1` [SM173] was tested, and the Emax at 1 µM was 66%.
`O=C(CN1c2cc(C(F)(F)F)ccc2-c2ccccc2S1(=O)=O)NC1CCCCC1` [SM338, N-cyclohexyl-2-[5,5-dioxido-8-(trifluoromethyl)-6H-dibenzo[c,e][1,2]thiazin-6-yl]acetamide] showed an Emax at 1 µM of 87.6%.
`CN(C)CCOc1ccc2c(c1)-c1ccccc1S(=O)(=O)N2CC(=O)NC1CCCCC1` [SM230, N-Cyclohexyl-2-[9-[2-(dimethylamino)ethoxy]-5,5-dioxido-6H-dibenzo[c,e][1,2]thiazin-6-yl]acetamide] gave an Emax at 1 µM of 44.9%.
`CC(C)(C)NC(=O)CN1c2ccc(Cl)cc2-c2ccccc2S1(=O)=O` [SM179] gave an Emax at 1 µM of 59.8%.
With `O=C(CN1c2ccc(C(F)(F)F)cc2-c2ccccc2S1(=O)=O)N[C@H]1CC[C@H](OS(=O)(=O)c2ccc([N+](=O)[O-])cc2)CC1` [SM589, trans-4-({2-[5,5-dioxido-9-(trifluoromethyl)-6H-dibenzo[c,e][1,2]thiazin-6-yl]acetyl}amino)cyclohexyl 4-nitrobenzenesulfonate] the Emax at 1 µM was 116%.
`CN(C(=O)CN1c2ccc(Br)cc2-c2ccccc2S1(=O)=O)C1CCCCC1` [SM8, 2-(9-Bromo-5,5-dioxido-6H-dibenzo[c,e][1,2]thiazin-6-yl)-N-cyclohexyl-N-methylacetamide] showed an Emax at 1 µM of 46.2%.
`O=C(CN1c2ccc(Cl)cc2-c2ccccc2S1(=O)=O)NC1CCCCC1` [SM254, 2-(9-chloro-5,5-dioxido-6H-dibenzo[c,e][1,2]thiazin-6-yl)-N-cyclohexylacetamide] showed an Emax at 1 µM of 127%.
For `O=C(CN1c2cccc(Cl)c2-c2ccccc2S1(=O)=O)NC1CCCCC1` [SM585, 2-(10-chloro-5,5-dioxido-6H-dibenzo[c,e][1,2]thiazin-6-yl)-N-cyclohexylacetamide], the Emax at 1 µM was 71.7%.
With `O=C(CN1c2ccc(F)c(Cl)c2-c2ccccc2S1(=O)=O)NC1CCCCC1` [SM337, 2-(10-chloro-9-fluoro-5,5-dioxido-6H-dibenzo[c,e][1,2]thiazin-6-yl)-N-cyclohexylacetamide] the Emax at 1 µM was 109%.
`O=C(CN1c2cccc(C(F)(F)F)c2-c2ccccc2S1(=O)=O)NC1CCCCC1` [SM339, N-cyclohexyl-2-[5,5-dioxido-10-(trifluoromethyl)-6H-dibenzo[c,e][1,2]thiazin-6-yl]acetamide] gave an Emax at 1 µM of 112%.
`O=C(CN1c2ccc(Br)cc2-c2ccccc2S1(=O)=O)NC1CC1` [SM165] was tested, and the Emax at 1 µM was 65.6%.
With `O=C(CN1c2ccc(Br)cc2-c2ccccc2S1(=O)=O)Nc1c(F)cccc1F` [SM163] the Emax at 1 µM was 104%.
Molecule `O=S1(=O)c2ccccc2-c2cc(Br)ccc2N1CCNC1CCCCC1` [SM9, N-[2-(9-bromo-5,5-dioxido-6H-dibenzo[c,e][1,2]thiazin-6-yl)ethyl]cyclohexanamine] has an Emax at 1 µM of 45.2%.
For `O=C(CN1c2ccc(Br)cc2-c2ccccc2S1(=O)=O)NC1CCCC1` [SM4, 2-(9-Bromo-5,5-dioxido-6H-dibenzo[c,e][1,2]thiazin-6-yl)-N-cyclopentylacetamide], the Emax at 1 µM was 66.6%.
In the case of `O=C(CN1c2ccc(Br)cc2-c2ccccc2S1(=O)=O)Nc1ccccc1` [SM6, 2-(9-bromo-5,5-dioxo-6H-dibenzo[c,e][1,2]thiazin-6 (5H)-yl)-N-phenylacetamide], the Emax at 1 µM is reported as 48.1%.
Work on `O=C(CN1c2ccc(Br)cc2-c2ccccc2S1(=O)=O)NC1CCCCCC1` [SM5, 2-(9-Bromo-5,5-dioxido-6H-dibenzo[c,e][1,2]thiazin-6-yl)-N-cycloheptylacetamide] yielded an Emax at 1 µM of 52.8%.
Work on `CSc1ccc2c(c1)-c1ccccc1S(=O)(=O)N2CC(=O)NC1CCCCC1` [SM340, N-cyclohexyl-2-[9-(methylthio)-5,5-dioxido-6H-dibenzo[c,e][1,2]thiazin-6-yl]acetamide] yielded an Emax at 1 µM of 23%.
`O=C(CN1c2ccc(Br)cc2-c2ccccc2S1(=O)=O)NCc1ccco1` [SM167] gave an Emax at 1 µM of 56.6%.
`O=C(CN1c2ccc(Br)cc2-c2ccccc2S1(=O)=O)Nc1cccnc1` [SM221] was tested, and the Emax at 1 µM was 44.9%.
Molecule `CCC(C)NC(=O)CN1c2ccc(Br)cc2-c2ccccc2S1(=O)=O` (stereo not shown) [SM175] has an Emax at 1 µM of 66.2%.
Molecule `CC(C)C(NC(=O)CN1c2ccc(Br)cc2-c2ccccc2S1(=O)=O)C(C)C` [SM223] has an Emax at 1 µM of 54.7%.
`COCCNC(=O)CN1c2ccc(Br)cc2-c2ccccc2S1(=O)=O` [SM170] gave an Emax at 1 µM of 36.9%.
For `O=C(CN1c2ccc(Br)cc2-c2ccccc2S1(=O)=O)NCCCn1ccnc1` [SM220], the Emax at 1 µM was 51.7%.
`O=C(CN1c2ccc(F)cc2-c2ccccc2S1(=O)=O)NC1CCCC1` [SM219] gave an Emax at 1 µM of 54%.
`CC(C)NC(=O)CN1c2ccc(Br)cc2-c2ccccc2S1(=O)=O` [SM169] was tested, and the Emax at 1 µM was 59.1%.
With `O=C(CN1c2ccc(F)cc2-c2ccccc2S1(=O)=O)NC12CC3CC(CC(C3)C1)C2` [SM224] the Emax at 1 µM was 71.5%.
Molecule `O=C(CN1c2ccc(Br)cc2-c2ccccc2S1(=O)=O)NCCN1CCOCC1` [SM178] has an Emax at 1 µM of 44%.
`O=C(CN1c2cc(Cl)cc(Cl)c2-c2ccccc2S1(=O)=O)NC1CCCCC1` [SM587, N-cyclohexyl-2-(8,10-dichloro-5,5-dioxido-6H-dibenzo[c,e][1,2]thiazin-6-yl)acetamide] gave an Emax at 1 µM of 168%.
Molecule `O=C(CN1c2ccc(C(F)(F)F)cc2-c2ccccc2S1(=O)=O)N[C@H]1CC[C@H](O)CC1` [SM588, 2-[5,5-dioxido-9-(trifluoromethyl)-6H-dibenzo[c,e][1,2]thiazin-6-yl]-N-(trans-4-hydroxycyclohexyl)acetamide] has an Emax at 1 µM of 10.6%.
`COc1ccc2c(c1)-c1ccccc1S(=O)(=O)N2CC(=O)NC1CCCCC1` [SM225, N-Cyclohexyl-2-(9-methoxy-5,5-dioxido-6H-dibenzo[c,e][1,2]thiazin-6-yl)acetamide] gave an Emax at 1 µM of 61.5%.
Work on `O=C(CN1c2ccccc2-c2ccccc2S1(=O)=O)NC1CCCCC1` [SM7, 2-(5,5-dioxido-6H-dibenzo[c,e][1,2]thiazin-6-yl)-N-cyclohexylacetamide] yielded an Emax at 1 µM of 55.9%.
Molecule `O=C(CCN1c2ccc(Br)cc2-c2ccccc2S1(=O)=O)NC1CCCCC1` [SM10, 3-(9-Bromo-5,5-dioxido-6H-dibenzo[c,e][1,2]thiazin-6-yl)-N-cyclohexylpropanamide] has an Emax at 1 µM of 45.1%.
`O=C(CN1c2ccc(C(F)(F)F)cc2-c2ccccc2S1(=O)=O)Nc1ccnc(Cl)c1` [SM880, N-(2-chloropyridin-4-yl)-2-[5,5-dioxido-9-(trifluoromethyl)-6H-dibenzo[c,e][1,2]thiazin-6-yl]acetamide] showed an Emax at 1 µM of 78.3%.
Molecule `Cc1ccc2c(c1)-c1ccccc1S(=O)(=O)N2CC(=O)NC1CCCCC1` [SM181] has an Emax at 1 µM of 59.4%.
For `CC(C)(C)NC(=O)CN1c2ccc(Br)cc2-c2ccccc2S1(=O)=O` [SM177], the Emax at 1 µM was 58.4%.
`CC(C)c1ccc2c(c1)-c1ccccc1S(=O)(=O)N2CC(=O)NC1CCCCC1` [SM180] was tested, and the Emax at 1 µM was 44%.
With `O=C(CN1c2ccc(Br)cc2-c2ccccc2S1(=O)=O)NC1CCCCCCC1` [SM162] the Emax at 1 µM was 71.8%.
In the case of `CC(=O)c1cccc(NC(=O)CN2c3ccc(Br)cc3-c3ccccc3S2(=O)=O)c1` [SM168], the Emax at 1 µM is reported as 46.2%.
In the case of `O=C(CN1c2cc(Cl)ccc2-c2ccccc2S1(=O)=O)NC1CCCCC1` [SM586, 2-(8-chloro-5,5-dioxido-6H-dibenzo[c,e][1,2]thiazin-6-yl)-N-cyclohexylacetamide], the Emax at 1 µM is reported as 181%.
`Cc1cccc(NC(=O)CN2c3ccc(Br)cc3-c3ccccc3S2(=O)=O)c1` [SM171] was tested, and the Emax at 1 µM was 102%.
For `O=C(CN1c2ccc(Br)cc2-c2ccccc2S1(=O)=O)Nc1ccc(F)cc1` [SM222], the Emax at 1 µM was 85.1%.
For `O=C(CN1c2c(Br)cccc2-c2ccccc2S1(=O)=O)NC1CCCCC1` [SM227, 2-(7-Bromo-5,5-dioxido-6H-dibenzo[c,e][1,2]thiazin-6-yl)-N-cyclohexylacetamide], the Emax at 1 µM was 41.1%.
`O=C1C(N2c3ccc(Br)cc3-c3ccccc3S2(=O)=O)CCN1C1CCCCC1` (racemic) [SM11, (R,S)-3-(9-Bromo-5,5-dioxido-6H-dibenzo[c,e][1,2]thiazin-6-yl)-1-cyclohexylpyrrolidin-2-one] was tested, and the Emax at 1 µM was 43.9%.
`O=C(CN1c2ccc(O)cc2-c2ccccc2S1(=O)=O)NC1CCCCC1` [SM226, N-Cyclohexyl-2-(9-hydroxy-5,5-dioxido-6H-dibenzo[c,e][1,2]thiazin-6yl)acetamide] was tested, and the Emax at 1 µM was 37.9%.
Molecule `O=C(CN1c2cc(Cl)c(F)cc2-c2ccccc2S1(=O)=O)NC1CCCCC1` [SM336, 2-(8-chloro-9-fluoro-5,5-dioxido-6H-dibenzo[c,e][1,2]thiazin-6-yl)-N-cyclohexylacetamide] has an Emax at 1 µM of 119%.
`O=C(CN1c2ccc(Br)cc2-c2ccccc2S1(=O)=O)NCc1ccccc1` [SM166] was tested, and the Emax at 1 µM was 48.6%.
In the case of `O=C(CN1c2ccc(Br)cc2-c2ccccc2S1(=O)=O)NCc1ccccn1` [SM176], the Emax at 1 µM is reported as 37.9%.
`O=C(CN1c2ccc(Br)cc2-c2ccccc2S1(=O)=O)NCC1CCCO1` (stereo not shown) [SM172] showed an Emax at 1 µM of 40.6%.
In the case of `Cc1n[nH]c2c1N(CC(=O)NC1CCCCC1)S(=O)(=O)c1ccccc1-2` [SM879, N-cyclohexyl-2-(3-methyl-5,5-dioxidopyrazolo[4,3-c][1,2]benzothiazin-4 (1H)-yl)acetamide], the Emax at 1 µM is reported as 22.5%.
In the case of `CC(C)CNC(=O)CN1c2ccc(Br)cc2-c2ccccc2S1(=O)=O` [SM174], the Emax at 1 µM is reported as 56.3%.

Same assay, conditions: HEK293, read-out: IC50 (rescuing dose at 50%)
With `O=C(CN1c2ccc(C(F)(F)F)cc2-c2ccccc2S1(=O)=O)N[C@H]1CC[C@H](OS(=O)(=O)c2ccc([N+](=O)[O-])cc2)CC1` [SM589, trans-4-({2-[5,5-dioxido-9-(trifluoromethyl)-6H-dibenzo[c,e][1,2]thiazin-6-yl]acetyl}amino)cyclohexyl 4-nitrobenzenesulfonate] the IC50 was 1050 nM.
`O=C(CN1c2ccc(Cl)cc2-c2ccccc2S1(=O)=O)NC1CCCCC1` [SM254, 2-(9-chloro-5,5-dioxido-6H-dibenzo[c,e][1,2]thiazin-6-yl)-N-cyclohexylacetamide] gave an IC50 of 300 nM.
`O=C(CN1c2ccc(F)c(Cl)c2-c2ccccc2S1(=O)=O)NC1CCCCC1` [SM337, 2-(10-chloro-9-fluoro-5,5-dioxido-6H-dibenzo[c,e][1,2]thiazin-6-yl)-N-cyclohexylacetamide] showed an IC50 of 970 nM.
`O=C(CN1c2cccc(C(F)(F)F)c2-c2ccccc2S1(=O)=O)NC1CCCCC1` [SM339, N-cyclohexyl-2-[5,5-dioxido-10-(trifluoromethyl)-6H-dibenzo[c,e][1,2]thiazin-6-yl]acetamide] showed an IC50 of 340 nM.
For `O=C(CN1c2cc(Cl)cc(Cl)c2-c2ccccc2S1(=O)=O)NC1CCCCC1` [SM587, N-cyclohexyl-2-(8,10-dichloro-5,5-dioxido-6H-dibenzo[c,e][1,2]thiazin-6-yl)acetamide], the IC50 was 600 nM.
With `O=C(CN1c2cc(Cl)ccc2-c2ccccc2S1(=O)=O)NC1CCCCC1` [SM586, 2-(8-chloro-5,5-dioxido-6H-dibenzo[c,e][1,2]thiazin-6-yl)-N-cyclohexylacetamide] the IC50 was 350 nM.
`O=C(CN1c2cc(Cl)c(F)cc2-c2ccccc2S1(=O)=O)NC1CCCCC1` [SM336, 2-(8-chloro-9-fluoro-5,5-dioxido-6H-dibenzo[c,e][1,2]thiazin-6-yl)-N-cyclohexylacetamide] was tested, and the IC50 was 100 nM.

Reference: US20240376092A1 (priority 2021, published 2024)
